Results reported in US9221838B2, “Inhibitors of AKT activity” (ALMAC DISCOVERY LIMITED, priority 2009, dated 2015).

How the values were obtained:
Assay type in all cases: biochemical
AKT3 = biological target: T1, AKT3 (Homo sapiens, UniProt Q9Y243); assay: AKT Kinase Assay (IMAP fluorescent polarisation) vs AKT3
T1 construct: purchased SignalChem
Outline: (§1)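 Phosphorylation of FAM-Crosstide detected by IMAP binding and fluorescence polarisation (485/528 nm), with IC50 fitted from % inhibition versus vehicle. Compound was incubated 45 min with enzyme, then reacted 1 h at room temperature with ATP and peptide in Tris/MgCl2/DTT buffer. Dose response had fourteen half-log points.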

AKT2 = biological target: T2, AKT2 (Homo sapiens, UniProt P31751); assay: AKT Kinase Assay (IMAP fluorescent polarisation) vs AKT2
T2 construct: purchased SignalChem
T2 sequence (P31751 whole entry): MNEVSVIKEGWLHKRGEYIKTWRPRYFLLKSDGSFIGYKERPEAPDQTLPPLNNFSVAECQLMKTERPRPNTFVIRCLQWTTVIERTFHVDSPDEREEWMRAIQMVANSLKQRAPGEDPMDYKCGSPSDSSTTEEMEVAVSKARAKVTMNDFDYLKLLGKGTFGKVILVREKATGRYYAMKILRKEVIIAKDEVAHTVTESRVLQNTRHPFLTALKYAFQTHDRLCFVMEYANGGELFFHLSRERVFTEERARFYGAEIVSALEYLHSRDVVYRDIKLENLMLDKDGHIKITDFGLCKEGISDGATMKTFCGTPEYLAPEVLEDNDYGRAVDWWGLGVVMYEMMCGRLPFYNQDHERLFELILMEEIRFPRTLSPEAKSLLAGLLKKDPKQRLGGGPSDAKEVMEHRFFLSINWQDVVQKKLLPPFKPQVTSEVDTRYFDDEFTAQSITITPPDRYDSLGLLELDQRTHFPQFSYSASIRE
Outline: as §1

AKT1 = biological target: T3, AKT1 (Homo sapiens, UniProt P31749); assay: AKT Kinase Assay (IMAP fluorescent polarisation) vs AKT1
T3 construct: purchased SignalChem
T3 sequence (P31749 whole entry): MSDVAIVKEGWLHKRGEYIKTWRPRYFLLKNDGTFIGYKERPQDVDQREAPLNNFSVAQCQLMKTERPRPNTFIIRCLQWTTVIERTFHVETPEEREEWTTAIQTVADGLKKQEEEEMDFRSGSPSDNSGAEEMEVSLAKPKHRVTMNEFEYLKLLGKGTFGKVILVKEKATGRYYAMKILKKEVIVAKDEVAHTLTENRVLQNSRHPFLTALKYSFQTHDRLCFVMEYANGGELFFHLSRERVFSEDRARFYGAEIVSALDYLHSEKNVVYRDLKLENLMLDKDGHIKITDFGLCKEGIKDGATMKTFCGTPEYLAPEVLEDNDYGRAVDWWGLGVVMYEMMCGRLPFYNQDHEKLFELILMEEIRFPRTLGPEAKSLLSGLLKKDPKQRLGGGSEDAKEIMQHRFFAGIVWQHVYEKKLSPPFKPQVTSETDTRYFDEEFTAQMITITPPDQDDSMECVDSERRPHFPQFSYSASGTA
Outline: as §1

T1 sequence (Q9Y243 whole entry): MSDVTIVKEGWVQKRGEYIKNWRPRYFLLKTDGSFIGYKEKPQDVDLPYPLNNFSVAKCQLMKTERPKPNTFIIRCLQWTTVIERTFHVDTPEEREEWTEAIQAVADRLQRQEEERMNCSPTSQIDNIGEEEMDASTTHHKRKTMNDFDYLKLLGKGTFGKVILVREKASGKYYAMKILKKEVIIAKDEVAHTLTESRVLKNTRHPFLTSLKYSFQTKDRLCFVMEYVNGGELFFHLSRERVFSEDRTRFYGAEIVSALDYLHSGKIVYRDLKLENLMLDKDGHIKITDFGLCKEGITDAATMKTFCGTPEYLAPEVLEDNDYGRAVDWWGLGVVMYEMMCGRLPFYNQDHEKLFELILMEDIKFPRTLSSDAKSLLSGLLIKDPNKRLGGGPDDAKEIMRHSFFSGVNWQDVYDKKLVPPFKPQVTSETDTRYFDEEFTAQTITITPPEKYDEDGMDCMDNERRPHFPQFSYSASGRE

IC50 (AKT3) | IC50 (AKT2) | IC50 (AKT1) | SMILES
1000 to 10000 nM | ≤ 100 nM | 1000 to 10000 nM | CS(=O)(=O)CN1C(=O)COc2nc(-c3ccc(C4(N)CCC4)cc3)c(-c3ccccc3)cc21 [Example 82, 6-(4-(1-aminocyclobutyl)phenyl)-1-(methylsulfonylmethyl)-7-phenyl-1H-pyrido[2,3-b][1,4]oxazin-2(3H)-one]
1000 to 10000 nM | 1000 to 10000 nM | 1000 to 10000 nM | Cn1cc(N2C(=O)COc3nc(-c4ccc(C5(N)CCC5)cc4)c(-c4ccccc4)cc32)cn1 [Example 83, 6-(4-(1-aminocyclobutyl)phenyl)-1-(1-methyl-1H-pyrazol-4-yl)-7-phenyl-1H-pyrido[2,3-b][1,4]oxazin-2(3H)-one]
1000 to 10000 nM | 1000 to 10000 nM | 100 to 1000 nM | CC1Oc2nc(-c3ccc(C4(N)CCC4)cc3)c(-c3ccccc3)cc2N(C)C1=O (stereo not drawn) [Example 84, 6-(4-(1-aminocyclobutyl)phenyl)-1,3-dimethyl-7-phenyl-1H-pyrido[2,3-b][1,4]oxazin-2(3H)-one]
100 to 1000 nM | ≤ 100 nM | 100 to 1000 nM | NC1(c2ccc(-c3nc4c(cc3-c3ccccc3)N(CC(F)F)C(=O)CO4)cc2)CCC1 [Example 85, 6-(4-(1-aminocyclobutyl)phenyl)-1-(2,2-difluoroethyl)-7-phenyl-1H-pyrido[2,3-b][1,4]oxazin-2(3H)-one]
1000 to 10000 nM | ≤ 100 nM | 100 to 1000 nM | NC1(c2ccc(-c3nc4c(cc3-c3ccccc3)N(CCF)C(=O)CO4)cc2)CCC1 [Example 86, 6-(4-(1-aminocyclobutyl)phenyl)-1-(2-fluoroethyl)-7-phenyl-1H-pyrido[2,3-b][1,4]oxazin-2(3H)-one]
> 10000 nM | 1000 to 10000 nM | 100 to 1000 nM | NC1(c2ccc(-c3nc4c(cc3-c3ccccc3)NC(=O)NC4)cc2)CCC1 [Example 87, 6-(4-(1-aminocyclobutyl)phenyl)-7-phenyl-3,4-dihydropyrido[3,2-d]pyrimidin-2(1H)-one]
> 10000 nM | > 10000 nM | > 10000 nM | CCNC(=O)N1CCOc2nc(-c3ccc(C4(N)CCC4)cc3)c(-c3ccccc3)cc21 [Example 88, 6-(4-(1-aminocyclobutyl)phenyl)-N-ethyl-7-phenyl-2,3-dihydro-1H-pyrido[2,3-b][1,4]oxazine-1-carboxamide]
1000 to 10000 nM | 100 to 1000 nM | 100 to 1000 nM | CN1Cc2nc(-c3ccc(C4(N)CCC4)cc3)c(-c3ccccc3)cc2N(C)C1=O [Example 89, 6-(4-(1-aminocyclobutyl)phenyl)-1,3-dimethyl-7-phenyl-3,4-dihydropyrido[3,2-d]pyrimidin-2(1H)-one]
> 10000 nM | 100 to 1000 nM | 1000 to 10000 nM | CO/N=C1\COc2nc(-c3ccc(C4(N)CCC4)cc3)c(-c3ccccc3)cc2N1C [Example 90, 6-(4-(1-Aminocyclobutyl)phenyl)-1-methyl-7-phenyl-1H-pyrido[2,3-b][1,4]oxazin-2(3H)-one O-methyl oxime]
1000 to 10000 nM | ≤ 100 nM | 100 to 1000 nM | NC1(c2ccc(-c3nc4c(cc3-c3ccccc3)N(c3cccnc3)CCO4)cc2)CCC1 [Example 91, 1-(4-(7-phenyl-1-(pyridin-3-yl)-2,3-dihydro-1H-pyrido[2,3-b][1,4]oxazin-6-yl)phenyl)cyclobutanamine]
1000 to 10000 nM | 1000 to 10000 nM | 100 to 1000 nM | NC1(c2ccc(-c3nc4c(cc3-c3ccccc3)-n3c(Br)nnc3CO4)cc2)CCC1 [Example 92, 1-(4-(1-bromo-8-phenyl-4H-pyrido[2,3-b][1,2,4]triazolo[4,3-d][1,4]oxazin-7-yl)phenyl)cyclobutanamine]
1000 to 10000 nM | ≤ 100 nM | ≤ 100 nM | C[C@H]1Oc2nc(-c3ccc(C4(N)CCC4)cc3)c(-c3ccccc3)cc2N(CC#N)C1=O [Example 93, (R)-2-(6-(4-(1-aminocyclobutyl)phenyl)-3-methyl-2-oxo-7-phenyl-2,3-dihydro-1H-pyrido[2,3-b][1,4]oxazin-1-yl)acetonitrile]
> 10000 nM | 1000 to 10000 nM | 100 to 1000 nM | C[C@H]1Oc2nc(-c3ccc(C4(N)CCC4)cc3)c(-c3ccccc3)cc2N(C)C1=O [Example 94, (R)-6-(4-(1-aminocyclobutyl)phenyl)-1,3-dimethyl-7phenyl-1H-pyrido[2,3-b][1,4]oxazin-2(3H)-one]
> 10000 nM | 100 to 1000 nM | 100 to 1000 nM | COCC1Oc2nc(-c3ccc(C4(N)CCC4)cc3)c(-c3ccccc3)cc2N(CC#N)C1=O (stereo not drawn) [Example 95, 2-(6-(4-(1-aminocyclobutyl)phenyl)-3-(methoxymethyl)-2-oxo-7-phenyl-2,3-dihydro-1H-pyrido[2,3-b][1,4]oxazin-1-yl)acetonitrile]
> 10000 nM | 1000 to 10000 nM | 100 to 1000 nM | COCC1Oc2nc(-c3ccc(C4(N)CCC4)cc3)c(-c3ccccc3)cc2N(C)C1=O (stereo not drawn) [Example 96, 6-(4-(1-aminocyclobutyl)phenyl)-3-(methoxymethyl)-1-methyl-7-phenyl-1H-pyrido[2,3-b][1,4]oxazin-2(3H)-one]
1000 to 10000 nM | 1000 to 10000 nM | 100 to 1000 nM | CN1C(=O)COc2nc(-c3ccc([C@]4(N)C[C@@H](O)C4)cc3)c(-c3ccccc3)cc21 [Example 97, 6-(4-((1s,3s)-1-amino-3-hydroxycyclobutyl)phenyl)-1-methyl-7-phenyl-1H-pyrido[2,3-b][1,4]oxazin-2(3H)-one]
100 to 1000 nM | 100 to 1000 nM | ≤ 100 nM | NC1(c2ccc(-c3nc4c(cc3-c3ccccc3)-n3c(nnc3C(F)F)CO4)cc2)CCC1 [Example 98, 1-(4-(1-(difluoromethyl)-8-phenyl-4H-pyrido[2,3-b][1,2,4]triazolo[4,3-d][1,4]oxazin-7-yl)phenyl)cyclobutanamine]
1000 to 10000 nM | 100 to 1000 nM | 100 to 1000 nM | Cn1nc2n(c1=O)-c1cc(-c3ccccc3)c(-c3ccc(C4(N)CCC4)cc3)nc1OC2 [Example 99, 7-(4-(1-aminocyclobutyl)phenyl)-2-methyl-8-phenyl-2,4-dihydro-1H-pyrido[2,3-b][1,2,4]triazolo[4,3-d][1,4]oxazin-1-one]
1000 to 10000 nM | 1000 to 10000 nM | 100 to 1000 nM | NC1(c2ccc(-c3nc4c(cc3-c3ccccc3)-n3c(nnc3C(F)(F)F)CO4)cc2)CCC1 [Example 100, 1-(4-(8-phenyl-1-(trifluoromethyl)-4H-pyrido[2,3-b][1,2,4]triazolo[4,3-d][1,4]oxazin-7-yl)phenyl)cyclobutanamine]
1000 to 10000 nM | 100 to 1000 nM | 100 to 1000 nM | N#CCn1nc2n(c1=O)-c1cc(-c3ccccc3)c(-c3ccc(C4(N)CCC4)cc3)nc1OC2 [Example 101, 2-(7-(4-(1-aminocyclobutyl)phenyl)-1-oxo-8-phenyl-1H-pyrido[2,3-b][1,2,4]triazolo[4,3-d][1,4]oxazin-2(4H)-yl)acetonitrile]
1000 to 10000 nM | ≤ 100 nM | 100 to 1000 nM | CC(C)CN1C(=O)COc2nc(-c3ccc(C4(N)CCC4)cc3)c(-c3ccccc3)cc21 [Example 102, 6-(4-(1-aminocyclobutyl)phenyl)-1-isobutyl-7-phenyl-1H-pyrido[2,3-b][1,4]oxazin-2(3H)-one]
